{"source": "the supplement of paper PMC10307832"}
{"compound": "CC1=C(C(=NN1)C)CC2=C(C3=C(S2)N(C(=O)N(C3=O)C)CC(C)C)C(=O)N4C[C@@H](CO4)O + CS(=O)(=O)CCNCc1ccc(-c2ccc3ncnc(Nc4ccc(OCc5cccc(F)c5)c(Cl)c4)c3c2)o1 [Lapatinib] (partner 2 µM)", "assay": "relative viability (nuclei count vs DMSO), 5 days (fraction); higher = more cells survive", "settings": "first compound 0.0025 µM", "procedure,_shortened": "(§1)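 Dosing by pin tool came one day after lung cancer cell lines were seeded in 1536-well plates, using either one drug or a fixed anchor-drug dose plus five library-drug doses (not always all listed) in √10 steps. After 5 days, nuclei were counted on 4× images. Relative viability is treated-well nuclei count divided by vehicle-well nuclei count, and values are medians of duplicate plates.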"}
{"cell line": "NCI-H727", "relative viability": 1.17}
{"cell line": "NCI-H1650", "relative viability": 0.954}
{"cell line": "EBC-1", "relative viability": 0.201}
{"cell line": "NCI-H1703", "relative viability": 1.14}
{"cell line": "NCI-H1993", "relative viability": 0.856}
{"cell line": "SW 1573", "relative viability": 1.09}
{"cell line": "NCI-H838", "relative viability": 1.03}
{"cell line": "NCI-H520", "relative viability": 0.983}
{"cell line": "NCI-H2126", "relative viability": 0.816}
{"cell line": "EMC-BAC-2", "relative viability": 0.604}
{"cell line": "NCI-H2085", "relative viability": 0.706}
{"cell line": "Calu-6", "relative viability": 1.13}
{"cell line": "HCC-366", "relative viability": 1.02}
{"cell line": "NCI-H1666", "relative viability": 0.72}
{"cell line": "NCI-H596", "relative viability": 1.12}
{"cell line": "LK-2", "relative viability": 0.987}
{"cell line": "NCI-H2087", "relative viability": 1.11}
{"cell line": "SK-MES-1", "relative viability": 0.474}
{"cell line": "H3255", "relative viability": 0.24}
{"cell line": "COR-L23", "relative viability": 0.883}
{"cell line": "COR-L 105", "relative viability": 0.36}
{"cell line": "IA-LM", "relative viability": 1.04}
{"cell line": "LOU-NH91", "relative viability": 0.74}
{"cell line": "NCI-H2170", "relative viability": 0.282}
{"cell line": "NCI-H2405", "relative viability": 1.26}
{"cell line": "HOP-62", "relative viability": 1.05}
{"cell line": "HCC-44", "relative viability": 1.01}
{"cell line": "A549", "relative viability": 1.08}
{"cell line": "NCI-H1395", "relative viability": 0.941}
{"cell line": "NCI-H1299", "relative viability": 0.953}
{"cell line": "NCI-H1793", "relative viability": 0.514}
{"compound": "CC1=C(C(=NN1)C)CC2=C(C3=C(S2)N(C(=O)N(C3=O)C)CC(C)C)C(=O)N4C[C@@H](CO4)O + CS(=O)(=O)CCNCc1ccc(-c2ccc3ncnc(Nc4ccc(OCc5cccc(F)c5)c(Cl)c4)c3c2)o1 [Lapatinib] (partner 2 µM)", "assay": "relative viability (nuclei count vs DMSO), 5 days (fraction); higher = more cells survive", "settings": "first compound 0.007906 µM", "procedure,_shortened": "as §1"}
{"cell line": "NCI-H727", "relative viability": 0.857}
{"cell line": "NCI-H1650", "relative viability": 1.12}
{"cell line": "EBC-1", "relative viability": 0.204}
{"cell line": "NCI-H1703", "relative viability": 1.37}
{"cell line": "NCI-H1993", "relative viability": 0.809}
{"cell line": "SW 1573", "relative viability": 1.02}
{"cell line": "NCI-H838", "relative viability": 1.06}
{"cell line": "NCI-H520", "relative viability": 0.823}
{"cell line": "NCI-H2126", "relative viability": 0.739}
{"cell line": "EMC-BAC-2", "relative viability": 0.987}
{"cell line": "NCI-H2085", "relative viability": 0.767}
{"cell line": "Calu-6", "relative viability": 1.06}
{"cell line": "HCC-366", "relative viability": 1.03}
{"cell line": "NCI-H1666", "relative viability": 0.584}
{"cell line": "NCI-H596", "relative viability": 1.19}
{"cell line": "LK-2", "relative viability": 0.933}
{"cell line": "NCI-H2087", "relative viability": 1.15}
{"cell line": "SK-MES-1", "relative viability": 0.462}
{"cell line": "H3255", "relative viability": 0.244}
{"cell line": "COR-L23", "relative viability": 0.846}
{"cell line": "COR-L 105", "relative viability": 0.422}
{"cell line": "IA-LM", "relative viability": 0.863}
{"cell line": "LOU-NH91", "relative viability": 0.755}
{"cell line": "NCI-H2170", "relative viability": 0.279}
{"cell line": "NCI-H2405", "relative viability": 1.1}
{"cell line": "HOP-62", "relative viability": 0.946}
{"cell line": "HCC-44", "relative viability": 1.1}
{"cell line": "A549", "relative viability": 1.07}
{"cell line": "NCI-H1395", "relative viability": 0.948}
{"cell line": "NCI-H1299", "relative viability": 0.992}
{"cell line": "NCI-H1793", "relative viability": 0.649}
{"compound": "CC1=C(C(=NN1)C)CC2=C(C3=C(S2)N(C(=O)N(C3=O)C)CC(C)C)C(=O)N4C[C@@H](CO4)O + CS(=O)(=O)CCNCc1ccc(-c2ccc3ncnc(Nc4ccc(OCc5cccc(F)c5)c(Cl)c4)c3c2)o1 [Lapatinib] (partner 2 µM)", "assay": "relative viability (nuclei count vs DMSO), 5 days (fraction); higher = more cells survive", "settings": "first compound 0.025 µM", "procedure,_shortened": "as §1"}
{"cell line": "NCI-H727", "relative viability": 0.781}
{"cell line": "NCI-H1650", "relative viability": 0.875}
{"cell line": "EBC-1", "relative viability": 0.217}
{"cell line": "NCI-H1703", "relative viability": 1.02}
{"cell line": "NCI-H1993", "relative viability": 0.744}
{"cell line": "SW 1573", "relative viability": 1.05}
{"cell line": "NCI-H838", "relative viability": 0.907}
{"cell line": "NCI-H520", "relative viability": 0.621}
{"cell line": "NCI-H2126", "relative viability": 0.78}
{"cell line": "EMC-BAC-2", "relative viability": 0.907}
{"cell line": "NCI-H2085", "relative viability": 0.598}
{"cell line": "Calu-6", "relative viability": 0.947}
{"cell line": "HCC-366", "relative viability": 1.06}
{"cell line": "NCI-H1666", "relative viability": 0.734}
{"cell line": "NCI-H596", "relative viability": 1.14}
{"cell line": "LK-2", "relative viability": 0.787}
{"cell line": "NCI-H2087", "relative viability": 1.09}
{"cell line": "SK-MES-1", "relative viability": 0.445}
{"cell line": "H3255", "relative viability": 0.25}
{"cell line": "COR-L23", "relative viability": 0.656}
{"cell line": "COR-L 105", "relative viability": 0.381}
{"cell line": "IA-LM", "relative viability": 0.924}
{"cell line": "LOU-NH91", "relative viability": 0.815}
{"cell line": "NCI-H2170", "relative viability": 0.276}
{"cell line": "HOP-62", "relative viability": 1.05}
{"cell line": "HCC-44", "relative viability": 0.988}
{"cell line": "A549", "relative viability": 1.04}
{"cell line": "NCI-H1395", "relative viability": 0.776}
{"cell line": "NCI-H1299", "relative viability": 0.93}
{"cell line": "NCI-H1793", "relative viability": 0.549}
{"compound": "CC1=C(C(=NN1)C)CC2=C(C3=C(S2)N(C(=O)N(C3=O)C)CC(C)C)C(=O)N4C[C@@H](CO4)O + CS(=O)(=O)CCNCc1ccc(-c2ccc3ncnc(Nc4ccc(OCc5cccc(F)c5)c(Cl)c4)c3c2)o1 [Lapatinib] (partner 2 µM)", "assay": "relative viability (nuclei count vs DMSO), 5 days (fraction); higher = more cells survive", "settings": "first compound 0.07906 µM", "procedure,_shortened": "as §1"}
{"cell line": "NCI-H727", "relative viability": 0.569}
{"cell line": "NCI-H1650", "relative viability": 0.881}
{"cell line": "EBC-1", "relative viability": 0.203}
{"cell line": "NCI-H1703", "relative viability": 1.14}
{"cell line": "NCI-H1993", "relative viability": 0.745}
{"cell line": "SW 1573", "relative viability": 1.04}
{"cell line": "NCI-H838", "relative viability": 0.778}
{"cell line": "NCI-H520", "relative viability": 0.496}
{"cell line": "NCI-H2126", "relative viability": 0.741}
{"cell line": "EMC-BAC-2", "relative viability": 0.861}
{"cell line": "NCI-H2085", "relative viability": 0.72}
{"cell line": "Calu-6", "relative viability": 1.04}
{"cell line": "HCC-366", "relative viability": 1.07}
{"cell line": "NCI-H1666", "relative viability": 0.786}
{"cell line": "NCI-H596", "relative viability": 0.982}
{"cell line": "LK-2", "relative viability": 0.903}
{"cell line": "NCI-H2087", "relative viability": 0.939}
{"cell line": "SK-MES-1", "relative viability": 0.434}
{"cell line": "H3255", "relative viability": 0.241}
{"cell line": "COR-L23", "relative viability": 0.826}
{"cell line": "COR-L 105", "relative viability": 0.302}
{"cell line": "IA-LM", "relative viability": 0.816}
{"cell line": "LOU-NH91", "relative viability": 0.781}
{"cell line": "NCI-H2170", "relative viability": 0.273}
{"cell line": "NCI-H2405", "relative viability": 1.18}
{"cell line": "HOP-62", "relative viability": 0.952}
{"cell line": "HCC-44", "relative viability": 0.908}
{"cell line": "A549", "relative viability": 0.976}
{"cell line": "NCI-H1395", "relative viability": 0.839}
{"cell line": "NCI-H1299", "relative viability": 0.935}
{"cell line": "NCI-H1793", "relative viability": 0.431}
{"compound": "CC1=C(C(=NN1)C)CC2=C(C3=C(S2)N(C(=O)N(C3=O)C)CC(C)C)C(=O)N4C[C@@H](CO4)O + CS(=O)(=O)CCNCc1ccc(-c2ccc3ncnc(Nc4ccc(OCc5cccc(F)c5)c(Cl)c4)c3c2)o1 [Lapatinib] (partner 2 µM)", "assay": "relative viability (nuclei count vs DMSO), 5 days (fraction); higher = more cells survive", "settings": "first compound 0.25 µM", "procedure,_shortened": "as §1"}
{"cell line": "NCI-H727", "relative viability": 0.869}
{"cell line": "NCI-H1650", "relative viability": 0.926}
{"cell line": "EBC-1", "relative viability": 0.204}
{"cell line": "NCI-H1703", "relative viability": 1.08}
{"cell line": "NCI-H1993", "relative viability": 0.947}
{"cell line": "SW 1573", "relative viability": 1.19}
{"cell line": "NCI-H838", "relative viability": 0.96}
{"cell line": "NCI-H520", "relative viability": 0.544}
{"cell line": "NCI-H2126", "relative viability": 0.739}
{"cell line": "EMC-BAC-2", "relative viability": 0.957}
{"cell line": "NCI-H2085", "relative viability": 0.595}
{"cell line": "Calu-6", "relative viability": 1.19}
{"cell line": "HCC-366", "relative viability": 1.15}
{"cell line": "NCI-H1666", "relative viability": 0.669}
{"cell line": "NCI-H596", "relative viability": 1.09}
{"cell line": "LK-2", "relative viability": 0.851}
{"cell line": "NCI-H2087", "relative viability": 1.23}
{"cell line": "SK-MES-1", "relative viability": 0.454}
{"cell line": "H3255", "relative viability": 0.223}
{"cell line": "COR-L23", "relative viability": 0.923}
{"cell line": "COR-L 105", "relative viability": 0.369}
{"cell line": "IA-LM", "relative viability": 1.05}
{"cell line": "LOU-NH91", "relative viability": 0.813}
{"cell line": "NCI-H2170", "relative viability": 0.306}
{"cell line": "NCI-H2405", "relative viability": 1.12}
{"cell line": "HOP-62", "relative viability": 1.08}
{"cell line": "HCC-44", "relative viability": 1.11}
{"cell line": "A549", "relative viability": 1.08}
{"cell line": "NCI-H1395", "relative viability": 0.949}
{"cell line": "NCI-H1299", "relative viability": 0.986}
{"cell line": "NCI-H1793", "relative viability": 0.426}
{"compound": "CC1=C(C(=NN1)C)CC2=C(C3=C(S2)N(C(=O)N(C3=O)C)CC(C)C)C(=O)N4C[C@@H](CO4)O + C[C@@H](Oc1cc(-c2cnn(C3CCNCC3)c2)cnc1N)c1c(Cl)ccc(F)c1Cl [Crizotinib] (partner 1 µM)", "assay": "relative viability (nuclei count vs DMSO), 5 days (fraction); higher = more cells survive", "settings": "first compound 0.0025 µM", "procedure,_shortened": "as §1"}
{"cell line": "NCI-H727", "relative viability": 0.697}
{"cell line": "NCI-H1650", "relative viability": 1.05}
{"cell line": "EBC-1", "relative viability": 0.219}
